For the experiment, the target named is T1, Stat5a (Homo sapiens, UniProt P42229).
T1 sequence (P42229 1-794): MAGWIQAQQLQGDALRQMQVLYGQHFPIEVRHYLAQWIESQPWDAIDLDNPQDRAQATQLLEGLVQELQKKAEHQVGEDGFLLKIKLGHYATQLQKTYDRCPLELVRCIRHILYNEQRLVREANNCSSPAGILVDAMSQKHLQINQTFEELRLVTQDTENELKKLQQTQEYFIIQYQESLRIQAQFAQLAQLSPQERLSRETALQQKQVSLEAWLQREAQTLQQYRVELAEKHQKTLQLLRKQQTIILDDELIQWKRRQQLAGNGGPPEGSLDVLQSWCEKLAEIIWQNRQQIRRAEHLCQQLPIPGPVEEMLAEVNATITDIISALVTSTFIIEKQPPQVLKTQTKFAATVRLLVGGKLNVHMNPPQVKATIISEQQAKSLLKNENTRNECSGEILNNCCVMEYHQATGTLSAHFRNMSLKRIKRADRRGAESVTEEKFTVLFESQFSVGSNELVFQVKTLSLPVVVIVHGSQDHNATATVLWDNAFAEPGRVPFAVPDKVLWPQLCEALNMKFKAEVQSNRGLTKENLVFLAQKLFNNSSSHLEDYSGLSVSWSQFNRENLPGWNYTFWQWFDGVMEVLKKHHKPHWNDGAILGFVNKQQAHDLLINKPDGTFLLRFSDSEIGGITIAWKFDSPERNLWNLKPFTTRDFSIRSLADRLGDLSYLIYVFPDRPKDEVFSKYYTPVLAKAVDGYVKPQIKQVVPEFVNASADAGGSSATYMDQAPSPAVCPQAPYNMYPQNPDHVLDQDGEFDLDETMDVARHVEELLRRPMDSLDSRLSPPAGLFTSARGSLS
Description: Prolactin-induced Stat5a phosphorylation in CWR22Rv1 prostate cells (immunoprecipitation/Western blot). It counts as cell-based. Particulars: CWR22Rv1, 12, 25, 50 and 100 μM for 2 h, then 10 nM Prl 30 minutes. How it is done:
CWR22Rv1 cells were starved for 24 h in serum-free medium, treated with Compound 2 at 12, 25, 50 and 100 μM concentrations for 2 h, followed by stimulation with 10 nM Prl for 30 minutes. Stat5a was immunoprecipitated with anti-Stat5a pAb (4 gg/ml, Millipore, Billerica, Mass.). Immunoprecipitates of CWR22Rv1 cells were blotted with anti-phospho-Stat5ab mAb (1 μg/ml, Advantex BioReagents, Conroe, Tex.) or anti-Stat5a/b mAb (BD Biosciences, San Jose, Calif.). Whole cell lysates were immunoblotted with anti-actin pAb for loading control.
The protocol in more detail comprised the following. Cell pellets were solubilized in lysis buffer [10 mM Tris-HCl (pH 7.6), 5 mM EDTA, 50 mM sodium chloride, 30 mM sodium pyrophosphate, 50 mM sodium fluoride, 1 mM sodium orthovanadate, 1% Triton X-100, 1 mM phenylmethylsulfonyl fluoride, 5 μg/ml aprotinin, 1 μg/ml pepstatin A, and 2 μg/ml leupeptin], rotated end-over-end at 4° C. for 60 min, and insoluble material was pelleted at 12,000×g for 30 min at 4° C. The protein concentrations of clarified cell lysates were determined by simplified Bradford method (Bio-Rad Laboratories, Hercules, Calif.). Stat5a was immunoprecipitated from whole cell lysates with anti-Stat5a (4 μl/ml; Millipore, Billerica, Mass.) pAb. Antibody was captured by incubation for 60 min with protein A-Sepharose beads (Amersham Pharmacia Biotech, Piscataway, N.J.). […]
(A western blot detects proteins with antibodies after separation by electrophoresis.)

Regarding `OC[C@H]1O[C@@H](n2cnc3c(NNc4ccccc4)ncnc32)[C@H](O)[C@@H]1O` [Compound 2, (2R,3S,4R,5R)-2-(hydroxymethyl)-5-(6-(2-phenylhydrazinyl)-9H-purin-9-yl)tetrahydrofuran-3,4-diol], the “effect on Stat5a phosphorylation” value was “inhibits Stat5a phosphorylation”.

These data come from patent publication US20150209379A1, “TREATMENT OF PROSTATE CANCER AND HEMATOLOGIC NEOPLASMS” (THOMAS JEFFERSON UNIVERSITY, priority 2012, published 2015).
